Source: PubChem BioAssay (NCI)
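48-hour exposure; five concentrations; linearly interpolated endpoints. At the TGI there is no net growth.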

Experiments:
Assay in all cases: growth of human tumour cells (NCI), 48 h
[1] = tested on: 786-0 renal
[2] = tested on: A498 renal
[3] = tested on: ACHN renal
[4] = tested on: CAKI-1 renal
[5] = tested on: CCRF-CEM leukemia
[6] = tested on: DU-145 prostate
[7] = tested on: EKVX NSCLC
[8] = tested on: HCC-2998 colon
[9] = tested on: HCT-116 colon
[10] = tested on: HCT-15 colon
[11] = tested on: HOP-62 NSCLC
[12] = tested on: HOP-92 NSCLC
[13] = tested on: HS 578T breast
[14] = tested on: HT29 colon
[15] = tested on: IGROV1 ovarian
[16] = tested on: K-562 leukemia
[17] = tested on: KM12 colon
[18] = tested on: LOX IMVI melanoma
[19] = tested on: MCF7 breast
[20] = tested on: MDA-MB-231 breast
[21] = tested on: MDA-MB-435
[22] = tested on: MDA-N
[23] = tested on: MOLT-4 leukemia
[24] = tested on: NCI-H226 lung
[25] = tested on: NCI-H460 lung
[26] = tested on: NCI-H522 lung
[27] = tested on: NCI/ADR-RES ovarian
[28] = tested on: OVCAR-3 ovarian
[29] = tested on: OVCAR-4 ovarian
[30] = tested on: OVCAR-5 ovarian
[31] = tested on: OVCAR-8 ovarian
[32] = tested on: PC-3 prostate
[33] = tested on: RXF 393 renal
[34] = tested on: SF-268 CNS
[35] = tested on: SF-295 CNS
[36] = tested on: SF-539 CNS
[37] = tested on: SK-MEL-2 melanoma
[38] = tested on: SK-MEL-28 melanoma
[39] = tested on: SK-MEL-5 melanoma
[40] = tested on: SK-OV-3 ovarian
[41] = tested on: SR leukemia
[42] = tested on: SW-620 colon
[43] = tested on: T-47D breast
[44] = tested on: TK-10 renal
[45] = tested on: U251 CNS
[46] = tested on: UACC-257 melanoma
[47] = tested on: UO-31 renal

`CN1CCN(Cn2nc(COc3ccc(Cl)cc3)n(/N=C/c3ccc(-c4ccc(Cl)cc4Cl)o3)c2=S)CC1` showed a TGI [1] of 17 µM, a TGI [2] of 32.6 µM and a TGI [3] of 33.9 µM. The TGI [4] was 28.3 µM, the TGI [5] was 17.3 µM and the TGI [6] was 25 µM. It also gave a TGI [7] of 37.7 µM, a TGI [8] of 7.72 µM and a TGI [9] of 26.2 µM. The TGI [10] was 36.9 µM, the TGI [11] was 16.8 µM and the TGI [12] was 22.7 µM. For the same compound, the TGI [13] was 23.8 µM, the TGI [14] was 15.4 µM and the TGI [15] was 24 µM. For the same compound, the TGI [16] was greater than 100 µM, the TGI [17] was 11 µM and the TGI [18] was 24.1 µM. It also gave a TGI [19] of 36.7 µM, a TGI [20] of 22 µM and a TGI [21] of 8.02 µM. For the same compound, the TGI [22] was 14.1 µM, the TGI [23] was 41.1 µM and the TGI [24] was 49.2 µM. It also gave a TGI [25] of 34.3 µM, a TGI [26] of 10.2 µM and a TGI [27] of 38.9 µM. It also gave a TGI [28] of 30.6 µM, a TGI [29] of 10.5 µM and a TGI [30] of 33.2 µM. The TGI [31] was 18.7 µM, the TGI [32] was 23.5 µM and the TGI [33] was 7.13 µM. For the same compound, the TGI [34] was 21.3 µM, the TGI [35] was 27.8 µM and the TGI [36] was 72.3 µM. The TGI [37] was 41 µM, the TGI [38] was 28.2 µM and the TGI [39] was 35.5 µM. The TGI [40] was 30.2 µM, the TGI [41] was 14.8 µM and the TGI [42] was 19 µM. For the same compound, the TGI [43] was 46.3 µM, the TGI [44] was 30.6 µM and the TGI [45] was 23.1 µM. For the same compound, the TGI [46] was 36.7 µM and the TGI [47] was 32.6 µM.
